# Source: patent US11214803B2, “Modulators of YAP1 expression” (Ionis Pharmaceuticals, Inc., priority 2019, dated 2022)
# Marks after values point to notes of the source that are not given here. Strand notation (5' to 3'): a small letter for the sugar, then the base; units joined by * are phosphorothioate-linked, units joined directly phosphodiester-linked; [ ] holds rarer units or linkages, { } end groups; capitals alone tell only the bases. k = constrained ethyl (cEt); [5mC] = 5-methylcytosine; d = 2'-deoxy (DNA)
# System: Yap1 mRNA
# Test: Antisense inhibition of human Yap1 in A-431 cells by cEt gapmers, single dose (Example 2, RTS4814)
# Format: cell-based
# How it was run: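 A-431 cells (5,000/well) took up 2,000 nM 3-10-3 cEt gapmer by free uptake for ~48 h. Yap1 mRNA was quantified by qRT-PCR with primer probe set RTS4814, normalized to RIBOGREEN total RNA, and reported as % of untreated control.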
# [1] = Table 25, Yap1 mRNA as percent of untreated control, 3-10-3 cEt gapmers targeting SEQ ID NO.: 1, and 2
# [2] = Yap1 mRNA as percent of untreated control, A-431 cells, 3-10-3 cEt gapmers targeting SEQ ID NO.: 1, and 2, Table 30
# [3] = Table 32, Yap1 mRNA, percent of untreated control, 3-10-3 cEt gapmers targeting SEQ ID NO.: 1, and 2
# [4] = Table 23, Yap1 mRNA as percent of untreated control, 3-10-3 cEt gapmers, single dose
# [5] = Table 5, A-431 cells, 5,000 cells per well, free uptake, 2,000 nM modified oligonucleotide, approx. 48 hours, RTS4814, normalized to RIBOGREEN, Yap1 mRNA relative to untreated control cells
# [6] = Table 21, Yap1 mRNA, percent of untreated control, 3-10-3 cEt gapmers targeting SEQ ID NO.: 1 and 2
# [7] = Table 18, A-431 cells, 5,000 cells per well, free uptake, 2,000 nM modified oligonucleotide, approx. 48 hours, RTS4814, normalized to RIBOGREEN, Yap1 mRNA as percent of untreated control
# [8] = A-431 cells, 5,000 cells per well, free uptake, 2,000 nM modified oligonucleotide, approx. 48 hours, RTS4814, normalized to RIBOGREEN, Table 4, asterisk (*) = targets amplicon region of primer probe set
# [9] = Table 22, Yap1 mRNA as percent of untreated control, 3-10-3 cEt gapmers, single dose
# [10] = Table 24, Yap1 mRNA as percent of untreated control, 3-10-3 cEt gapmers targeting SEQ ID NO.: 1, and 2
# [11] = Table 6, A-431 cells, 5,000 cells per well, free uptake, 2,000 nM modified oligonucleotide, approx. 48 hours, RTS4814, normalized to RIBOGREEN, Yap1 mRNA relative to untreated control cells
substance,measurement,setting,value
1075174 (antisense k[5mC]*k[5mC]*kT*dG*dA*dA*dA*dA*dG*dA*d[5mC]*dA*dG*kT*k[5mC]*k[5mC]) [Compound 1075174],YAP1 (% UTC),"Table 20, Yap1 mRNA, percent of untreated control, 3-10-3 cEt gapmers targeting SEQ ID NO.: 1 and 2",74 % UTC
1074635 (antisense kT*k[5mC]*k[5mC]*d[5mC]*dA*dA*dG*d[5mC]*dT*dG*dA*dG*dG*k[5mC]*kT*kT) [Compound 1074635],YAP1 (% UTC),[1],31 % UTC
1074288 (antisense kG*kA*k[5mC]*dT*dG*dA*dT*dT*d[5mC]*dT*d[5mC]*dT*dG*kG*kT*kT) [compound 1074288],YAP1 (% UTC),[2],48 % UTC
1075218 (k[5mC]*kT*kT*dA*dA*d[5mC]*dA*d[5mC]*dT*dG*dG*dT*dA*kA*kG*kA; antisense) [compound 1075218],YAP1 (% UTC),[3],97 % UTC
1074226 (antisense k[5mC]*kT*kG*dT*d[5mC]*dG*dA*dA*dG*dA*dT*dG*d[5mC]*kT*kG*kA) [compound 1074226],YAP1 (% UTC),[3],10 % UTC
1076401 (antisense kT*k[5mC]*kT*dA*dA*dA*dG*dA*d[5mC]*dT*d[5mC]*dT*d[5mC]*kA*kT*kT) [compound 1076401],YAP1 (% UTC),"Yap1 mRNA as percent of untreated control, A-431 cells, 3-10-3 cEt gapmers targeting SEQ ID NO.: 1, and 2, Table 31",31 % UTC
1074345 (antisense kT*k[5mC]*kT*dG*dA*dG*d[5mC]*dT*dA*dT*dT*dG*dG*kT*k[5mC]*kG) [Compound 1074345],YAP1 (% UTC),[4],8 % UTC
1075667 (antisense k[5mC]*kA*kA*dA*dT*dT*dT*dA*dG*dT*dT*dG*dT*kG*k[5mC]*kA) [compound 1075667],YAP1 (% UTC),"Table 33, Yap1 mRNA, percent of untreated control, 3-10-3 cEt gapmers targeting SEQ ID NO.: 1, and 2",109 % UTC
716557 (kA*kT*kT*dG*dG*dT*dA*d[5mC]*dT*dA*dT*dA*dT*kA*kT*kA; antisense) [Compound 716557],YAP1 (% UTC),[5],80 % UTC
1074955 (antisense k[5mC]*k[5mC]*k[5mC]*dG*dG*dG*dT*dT*dT*dT*dT*dG*dT*k[5mC]*kA*kT) [Compound 1074955],YAP1 (% UTC),[1],93 % UTC
1075634 (antisense kA*kG*kA*d[5mC]*dT*dA*dT*dA*dT*dT*dG*dG*d[5mC]*kT*k[5mC]*k[5mC]) [compound 1075634],YAP1 (% UTC),[3],65 % UTC
1074311 (antisense kT*kT*k[5mC]*d[5mC]*dG*d[5mC]*dA*dT*dT*dG*d[5mC]*d[5mC]*dT*kG*kT*kG) [Compound 1074311],YAP1 (% UTC),[6],24 % UTC
1074544 (k[5mC]*kT*k[5mC]*d[5mC]*d[5mC]*d[5mC]*dT*dA*dG*dG*d[5mC]*dA*d[5mC]*kT*kA*kT; antisense) [compound 1074544],YAP1 (% UTC),[2],34 % UTC
1076356 (k[5mC]*kA*kT*dA*dA*dT*dT*dG*dG*dA*d[5mC]*dT*dG*kT*k[5mC]*kT; antisense) [Compound 1076356],YAP1 (% UTC),[7],99 % UTC
1074180 (antisense k[5mC]*k[5mC]*kG*dG*dG*dA*dT*d[5mC]*d[5mC]*dA*dT*dG*dG*k[5mC]*kT*kT) [Compound 1074180],YAP1 (% UTC),[7],86 % UTC
716490 (kA*k[5mC]*kA*dA*d[5mC]*d[5mC]*dA*dA*d[5mC]*dT*dA*dT*dT*kA*k[5mC]*kT; antisense) [Compound 716490],YAP1 (% UTC),[8],63 % UTC
716472 (kG*kT*k[5mC]*dA*dT*dG*d[5mC]*dA*d[5mC]*dA*dT*dT*dA*kT*kG*kA; antisense) [Compound 716472],YAP1 (% UTC),[8],78 % UTC
1075657 (kT*kA*kA*dA*dA*dA*dA*d[5mC]*dG*dG*dT*dT*dT*kT*kT*k[5mC]; antisense) [Compound 1075657],YAP1 (% UTC),[4],84 % UTC
716467 (k[5mC]*k[5mC]*kG*dT*dA*dT*dG*d[5mC]*d[5mC]*d[5mC]*dA*dG*dA*kG*kG*kG; antisense) [Compound 716467],YAP1 (% UTC),[5],99 % UTC
716404 (k[5mC]*kG*kT*d[5mC]*dA*dT*dT*dG*dT*dT*d[5mC]*dT*d[5mC]*kA*kA*kT; antisense) [Compound 716404],YAP1 (% UTC),[5],63 % UTC
716398 (kT*kA*kT*dT*d[5mC]*d[5mC]*dG*d[5mC]*dA*dT*dT*dG*d[5mC]*k[5mC]*kT*kG; antisense) [Compound 716398],YAP1 (% UTC),[5],70 % UTC
1074439 (k[5mC]*kT*kG*dT*dG*dA*d[5mC]*dA*dT*dG*dA*dA*dG*k[5mC]*kA*kT; antisense) [Compound 1074439],YAP1 (% UTC),[6],2* % UTC
1075688 (kG*kA*k[5mC]*dA*dA*dT*dA*dA*dA*d[5mC]*dA*dT*d[5mC]*kA*k[5mC]*k[5mC]; antisense) [Compound 1075688],YAP1 (% UTC),[9],12 % UTC
1075333 (kA*kG*kT*dT*dA*dA*d[5mC]*dA*dA*dA*dG*d[5mC]*dG*kG*kG*kT; antisense) [Compound 1075333],YAP1 (% UTC),"Table 19, A-431 cells, 5,000 cells per well, free uptake, 2,000 nM modified oligonucleotide, approx. 48 hours, RTS4814, normalized to RIBOGREEN, Yap1 mRNA as percent of untreated control",14 % UTC
716388 (kA*kG*kA*dG*dG*dT*dG*dG*dT*d[5mC]*dT*dT*dG*kT*kT*k[5mC]; antisense) [Compound 716388],YAP1 (% UTC),[8],55 % UTC
716518 (antisense k[5mC]*kA*kA*dG*dG*dT*d[5mC]*d[5mC]*d[5mC]*d[5mC]*d[5mC]*dT*dA*kA*kA*kT) [Compound 716518],YAP1 (% UTC),[5],88 % UTC
1075849 (k[5mC]*kT*kA*dG*dA*dA*d[5mC]*dA*d[5mC]*dG*d[5mC]*dT*dG*kA*kT*kG; antisense) [Compound 1075849],YAP1 (% UTC),[4],55 % UTC
1075944 (kT*kA*kT*dT*dA*dG*dG*dA*dA*d[5mC]*dA*dG*dA*kT*k[5mC]*kA; antisense) [Compound 1075944],YAP1 (% UTC),[9],25 % UTC
1075531 (k[5mC]*kT*kT*dA*dA*dT*dA*dG*dT*dT*dT*dA*dA*k[5mC]*k[5mC]*kT; antisense) [Compound 1075531],YAP1 (% UTC),[1],66 % UTC
1075625 (kA*kA*kT*d[5mC]*dT*dA*dT*dA*dA*d[5mC]*d[5mC]*d[5mC]*dT*kT*kA*kT; antisense) [Compound 1075625],YAP1 (% UTC),[4],49 % UTC
1076522 (antisense kG*k[5mC]*kA*d[5mC]*dT*dA*dA*dA*dG*dG*dA*dG*dT*k[5mC]*kA*kT) [Compound 1076522],YAP1 (% UTC),[10],35 % UTC
716483 (k[5mC]*kA*kA*dA*dA*d[5mC]*d[5mC]*dT*dT*dA*dT*dA*dG*kT*kA*kT; antisense) [Compound 716483],YAP1 (% UTC),[11],159 % UTC
1075154 (k[5mC]*kA*kT*dT*dA*dT*dA*dA*dT*dG*dG*dG*dA*kG*kG*kA; antisense) [compound 1075154],YAP1 (% UTC),[3],13 % UTC
1076359 (kA*kT*kT*dT*dA*dT*d[5mC]*d[5mC]*dT*dA*dG*dT*dT*kA*k[5mC]*k[5mC]; antisense) [Compound 1076359],YAP1 (% UTC),[6],29 % UTC
716393 (kT*kT*kG*d[5mC]*dT*dG*d[5mC]*dT*dG*dG*dT*dT*dG*kG*kA*kG; antisense) [Compound 716393],YAP1 (% UTC),[11],46 % UTC
716545 (kG*k[5mC]*kA*dT*dG*dT*dA*dT*dT*dT*dA*dA*dT*kA*kT*kG; antisense) [Compound 716545],YAP1 (% UTC),[5],91 % UTC
716370 (k[5mC]*kA*kG*dT*dG*d[5mC]*d[5mC]*dT*dG*d[5mC]*dA*dT*d[5mC]*kA*kG*kT; antisense) [Compound 716370],YAP1 (% UTC),[8],25 % UTC
1075466 (antisense kT*k[5mC]*k[5mC]*dA*dA*dA*dA*dA*d[5mC]*d[5mC]*dA*dT*d[5mC]*kA*kG*kT) [Compound 1075466],YAP1 (% UTC),[10],28 % UTC
1075268 (antisense kT*kA*kT*dT*dA*dA*d[5mC]*d[5mC]*dT*dG*dG*dA*dG*kA*kG*kT) [Compound 1075268],YAP1 (% UTC),[7],47 % UTC
1075882 (kG*kA*kA*dA*dA*dT*d[5mC]*d[5mC]*dT*dG*dA*dT*dT*kA*kA*k[5mC]; antisense) [Compound 1075882],YAP1 (% UTC),[10],73 % UTC
